Test results taken from patent US11376272B2, “Methods of modulating immune activity” (Flagship Pioneering Innovations V, Inc., priority 2019, dated 2022).

Tests used:
IFN-beta [1] = assay: IFN-beta secretion from J774 macrophages (ELISA); assay type: cell-based, mouse; conditions: J774 macrophages exposed to HeLa/PBS conditioned media in combination with 2′3′-cGAMP, 24 hours
Experimental: (§1) HeLa cervical cancer cells were grown in PBS (nutrient-deprivation) for 48 hours. THP1 cells were then treated with the HeLa-PBS (nutrient deprived) conditioned media in the presence and absence of 2′3′-cGAMP. THP1 supernatants were then assayed for the secretion of IFN-beta, a cytokine regulated by IRF. The same experiment was additionally performed using the mouse macrophage cell line J774 in place of the THP1 cells.
(§2) To generate conditioned media, 3 million HeLa cells were seeded in a 10 cm dish in DMEM containing 10% FBS. Cells were left overnight to adhere and then plates were washed 3× with PBS prior to replacing media with either fresh DMEM containing 10% FBS, or with PBS. Cells were incubated for 48 hours, and then the conditioned media was removed, spun down and sterile filtered.
The same experiment was additionally performed using J774 cells (ATCC, TIB-67). In brief 500,000 cells/well were seeded in a 24-well plate. After cell adherence, media was refreshed, and HeLa conditioned media was added either in the presence or absence of 2′3′-cGAMP (as described above). After 24 hours J774 supernatant was removed an assayed for IFN-beta secretion as described above.

IFN-beta [2] = assay: IFN-beta secretion from THP1 monocytes (ELISA); assay type: cell-based, human; conditions: THP1 monocytes exposed to HeLa/PBS conditioned media in combination with 2′3′-cGAMP 300 ng/ml, 24 hours
Experimental: as §1, §2
500,000 THP1-Dual cells/well were seeded in a 24-well plate. 500 μl (1:1 dilution) of each condition was added to the well (PBS; PBS+300 ng/ml cGAMP; HeLa-PBS CM; HeLa-PBS CM+300 ng/ml cGAMP) and incubated for 24 hours. Cell supernatants were then spun down and sterile filtered prior to performing ELISA assay. ELISA assay was performed using the human IFN-beta DuoSet ELISA kit (DY814-05) and following the protocol provided by the manufacturer.

NfkB = NfkB reporter activity in THP1-Dual cells (QuantiBlue); assay type: cell-based, human; conditions: 24 hours
Experimental: (§3) HeLa cervical cancer cells were grown in either DMEM containing 10% FBS (standard culture conditions), or in PBS (nutrient-deprivation) for 48 hours. Conditioned media from each condition was then transferred to THP1-Dual cells in the presence of 300 ng/ml of 2′3′-cGAMP (purchased from Invivogen, cat no. tlrl-nacga23, and resuspended in water). THP1 cells treated with conditioned media were incubated for an additional 24 hours. THP1 supernatants were then assessed for NfkB or IRF reporter activity.
HeLa cells were acquired from the ATCC (catalog no. CCL 2.2) and were cultured in DMEM containing 10% FBS. THP1-Dual cells, which are human monocytes that report on both the NfkB and IRF pathways, were purchased from Invivogen (cat no. thpd-nfis) and were cultured in RPMI containing 10% FBS and 100 μg/ml normocin. […]
To measure IRF or NfkB pathway activation, 35,000 THP1-Dual cells/well were seeded in a 96-well plate (100 μl/well). […] After a 24 hour incubation period, IRF and NfkB activity were measured. To measure IRF activity, 50 μl of THP1 supernatant was transferred to a 96-well plate, and 50 μl of QuantiLuc reagent was added to each well immediately prior to reading luminescence by a platereader. […] The plate was then incubated at room temperature for 2-3 hours prior to reading the absorbance at 655 nm.

IRF = IRF reporter activity in THP1-Dual cells treated with conditioned media and/or compounds (QuantiLuc); assay type: cell-based, human
Experimental: as §3
HeLa cells were acquired from the ATCC (catalog no. CCL 2.2) and were cultured in DMEM containing 10% FBS. THP1-Dual cells, which are human monocytes that report on both the NfkB and IRF pathways, were purchased from Invivogen (cat no. thpd-nfis) and were cultured in RPMI containing 10% FBS and 100 μg/ml normocin.
as §2
To measure IRF or NfkB pathway activation, 35,000 THP1-Dual cells/well were seeded in a 96-well plate (100 μl/well). 100 μl of HeLa conditioned media was transferred to each well, plus or minus 2′3′-cGAMP (300 ng/ml final concentration). After a 24 hour incubation period, IRF and NfkB activity were measured. To measure IRF activity, 50 μl of THP1 supernatant was transferred to a 96-well plate, and 50 μl of QuantiLuc reagent was added to each well immediately prior to reading luminescence by a platereader. To measure NfkB activity, 50 μl of THP1 supernatant was transferred to a 96-well plate containing 200 μl of QuantiBlue reagent. The plate was then incubated at room temperature for 2-3 hours prior to reading the absorbance at 655 nm.
THP1-Dual cells (acquired from Invivogen) were seeded at 35,000 cells/well in a 96-well plate (100 μl/well). In a separate treatment plate, a 3-fold dose-response curve of each CDN was prepared, starting at 40 μg/ml, in either plain PBS or in combination with HeLa-PBS conditioned media (conditioned media prepared as previously described). 100 μl of compound treatment was transferred to THP1 cells (1:1 dilution) and cells were incubated for 24 hours. THP1 supernatants were subsequently removed and assayed for IRF activity.
THP1-Dual cells were plated at 35,000 cells/well in 96-well format. To each well, 100 μl of conditioned media was added (in triplicate) in the presence or absence of 2′3′-cGAMP (300 ng/ml). THP1-Dual cells were then incubated for 24 hours with conditioned media prior to assaying IRF induction.
THP1-Dual cells (acquired from Invivogen) were seeded at 35,000 cells/well in a 96-well plate (100 μl/well). In a separate treatment plate, a 3-fold dose-response curve of each purinergic receptor antagonist was prepared, starting at 20 μM, in either 2′3′-cGAMP alone or 2′3′-cGAMP in combination with HeLa-PBS conditioned media (conditioned media prepared as described in examples above). 100 μl from the treatment plate was then transferred to THP1 cells (1:1 dilution), and the cells were incubated for 24 hours. THP1 supernatants were removed and tested for IRF activity.
THP1 cells, acquired from Invivogen, were seeded at 35,000 cells/well in 96-well format, in 100 μl media. In a separate treatment plate, a dose curve of PSB 1114, starting at 20 μM, was prepared in either plain PBS, or in the presence of cGAMP. 100 μl from treatment plate was transferred to THP1 cells (1:1 dilution), and cells were incubated for 24 hours prior to IRF and NfkB read-out.
THP1 cells, acquired from Invivogen, were seeded at 35,000 cells/well in 96-well format, in 100 μl media. In a separate treatment plate, a dose curve of Diquafosol (acquired from MedChemExpress), starting at 100 μM, was prepared in either plain PBS, or in the presence of cGAMP. […]

[3] = test system: A20 B-cell lymphoma tumor cells; assay: Survival in mouse model of A20 B-cell lymphoma; assay type: in vivo, BALB/c mice; conditions: combination of 1 μg/kg ADU-S100 and 10 mg/animal diquafosol tetrasodium intratumorally once per day (Group 5), relative to either agent alone (Groups 2, 4)
Experimental: Test BALB/c mice were injected subcutaneously in the right flank with 1×10^6 A20 B-cell lymphoma tumor cells (in a 0.1 mL cell suspension). Sixteen days after tumor cell implantation, on Day 1 of the study, animals were sorted into ten groups (n=10) with individual tumor volumes between 48 and 100 mm^3 and a group mean tumor volume of 81 mm^3. Five groups of mice were dosed according in the following treatment groups.
Group 1 received Vehicle (PBS) intratumorally once per day. • Group 2 received 1 μg/kg of the STING agonist (ADU-S100) intratumorally once per day. • Group 3 received 50 μg/kg of the STING agonist (ADU-S100) intratumorally once per day. • Group 4 received 10 mg/animal of the purinergic receptor agonist (diquafosol testrasodium) intratumorally once per day. • Group 5 received 1 μg/kg ADU-S100 intratumorally combined with 10 mg/animal of diquafosol testrasodium intratumorally once per day.
ADU-S100 and Diquafosol tetrasodum were dosed intratumorally (itu) in a total volume of 50 μL of therapeutic agents; combination therapies were administered as single injections containing 2×25 μL of 2× dosing solutions.
Tumors were measured using calipers twice per week.

B16.F10 melanoma = conditions: Corrales et al., 2015; cited from earlier work
CT26 colon carcinoma = conditions: Corrales et al., 2015; cited from earlier work
4T1 mammary carcinoma = conditions: Corrales et al., 2015; cited from earlier work
IFN-β = conditions: PBMCs isolated from multiple donors with different STING genotypes; Corrales et al., 2015; cited from earlier work
human STING alleles = conditions: HEK293T cells; Corrales et al., 2015; cited from earlier work
[4] = combination of Diquafosol (dose curve starting at 100 μM) and cGAMP, THP1 cells, 24 hours
[5] = combination of PSB 1114 (dose curve starting at 20 μM) and 2′3′-cGAMP, THP1 cells, 24 hours
[6] = combination of Diquafosol (dose curve starting at 100 μM) and ADU-S100 (2 μM), THP1 cells, 24 hours

**Q.** Which results are given for `Nc1nc2c(ncn2[C@@H]2O[C@@H]3COP(=O)(O)O[C@H]4[C@@H](O)[C@H](n5cnc6c(N)ncnc65)O[C@@H]4COP(=O)(O)O[C@@H]2[C@@H]3O)c(=O)[nH]1` [2′3′-cGAMP]?
**A.** IFN-beta secretion (IFN-beta [1]): increased; IFN-beta secretion (IFN-beta [2]): increased; NFKB signaling (NfkB; combination of conditioned media from HeLa cells in DMEM+10% FBS (standard culture) and 2′3′-cGAMP 300 ng/ml): only slightly induced; NFKB signaling (NfkB; combination of nutrient-starved (PBS, 48 hours) HeLa conditioned media and 2′3′-cGAMP 300 ng/ml): increased; IRF signaling (IRF; [4]): induced IRF signaling; IRF signaling (IRF; [5]): induced IRF signaling; IRF signaling (IRF; combination of conditioned media from HeLa cells in DMEM+10% FBS (standard culture) and 2′3′-cGAMP 300 ng/ml, THP1-Dual cells, 24 hours): only slightly induced; IRF signaling (IRF; combination of nutrient-starved (PBS, 48 hours) HeLa conditioned media and 2′3′-cGAMP 300 ng/ml, THP1-Dual cells, 24 hours): increased; IRF signaling (IRF; combinations of cGAMP with purinergic receptor agonist nucleotide triphosphates, human monocytes, data not shown): induced IRF signaling; IRF activation (IRF; conditioned media (PBS, 48 hours) of A549, A427, J774, AMJ2C11, PANC1, MLE12, RAW264, Calu-1, MCF7 cells in combination with 2′3′-cGAMP 300 ng/ml, THP1-Dual cells, 24 hours): induced IRF activation

**Q.** With `Nc1ncnc2c1ncn2[C@@H]1O[C@@H]2COP(=O)([S-])O[C@@H]3[C@H](O)[C@@H](COP([O-])(=S)O[C@H]2[C@H]1O)O[C@H]3n1cnc2c(N)ncnc21.[Na+].[Na+]` (some centres unmarked) [ADU-S100] as the molecule, how does the survival [3] read?
**A.** much greater effect on increasing survival

**Q.** And the “antitumor immune response and tumor regression” value (B16.F10 melanoma)?
**A.** potent antitumor immune response and significant tumor regression

**Q.** And the “antitumor immune response and tumor regression” value (CT26 colon carcinoma)?
**A.** potent antitumor immune response and significant tumor regression

**Q.** What about the “antitumor immune response and tumor regression” value (4T1 mammary carcinoma) of the same molecule?
**A.** potent antitumor immune response and significant tumor regression

**Q.** And the “expression of IFN-β” value (IFN-β)?
**A.** induced dose-dependent expression of IFN-β

**Q.** And the STING activation (human STING alleles)?
**A.** broadly activate all known human STING alleles

**Q.** And the IRF signaling (IRF; combination of ADU-S100 (dose curve starting at 20 μM) and nutrient starved (PBS) HeLa conditioned media, THP1 cells, 24 hours)?
**A.** strongly increased IRF signaling

**Q.** And the IRF signaling (IRF; [6])?
**A.** synergizes

**Q.** With `Cc1ccc2c(c1)C=Cc1cc(C)ccc1C2c1cn(Cc2ccc(C(=O)Nc3nn[nH]n3)o2)c(=O)[nH]c1=S` [AR-C 118925] as the molecule, how does the “synergistic induction of IRF activity by cGAMP in combination with HeLa-PBS conditioned media” value (IRF; purinergic receptor antagonist 3-fold dose-response starting at 20 μM, THP1-Dual cells, 24 hours) read?
**A.** inhibited

**Q.** Which survival [3] does the source give for `O=c1ccn([C@@H]2O[C@H](COP(=O)(O)OP(=O)(O)OP(=O)(O)OP(=O)(O)OC[C@H]3O[C@@H](n4ccc(=O)[nH]c4=O)[C@H](O)[C@@H]3O)[C@@H](O)[C@H]2O)c(=O)[nH]1` [Diquafosol] here?
**A.** much greater effect on increasing survival

**Q.** And the IRF signaling (IRF; [6])?
**A.** synergizes

**Q.** What about the IRF signaling (IRF; [4]) of the same molecule?
**A.** induced IRF signaling

**Q.** With `O=c1[nH]c(=S)ccn1[C@@H]1O[C@H](COP(=O)(O)OP(=O)(O)C(F)(F)P(=O)(O)O)[C@@H](O)[C@H]1O` [PSB 1114] as the molecule, how does the IRF signaling (IRF; [5]) read?
**A.** induced IRF signaling
